Experimental data as given in PubChem BioAssay AID1259407 (Chemical Carcinogenesis Research Information System (CCRIS), 2018).
The source made the active and inactive calls. How the calls were made is not given here.

System: CCRIS mutagenicity, Ames/micronucleus/aberration tests
Experiment: CCRIS mutagenicity studies
[1] = Test System: AMES SALMONELLA TYPHIMURIUM, Strain/Indicator: TA98, Metabolic Activation: NONE, Method: PREINCUBATION

**Q.** How did the mutagenic call (End Point: IN VITRO MICRONUCLEUS, Test System: CHINESE HAMSTER V79 CELLS, Metabolic Activation: NONE) turn out when `[Cl][Hg][Cl]` was run?
**A.** Its mutagenic call is “active; positive”.

**Q.** What about the mutagenic call (End Point: IN VITRO MICRONUCLEUS, Test System: CHL/IU CELLS, Metabolic Activation: NONE) of the same compound?
**A.** The mutagenic call was “inactive; negative”.

**Q.** And the mutagenic call (End Point: IN VITRO MICRONUCLEUS, Test System: HUMAN PERIPHERAL LYMPHOCYTES, Metabolic Activation: NONE)?
**A.** Its mutagenic call is “active; positive”.

**Q.** What about the mutagenic call (End Point: IN VIVO MICRONUCLEUS, Test System: RETICULOCYTES, Species: RAT, Strain/Sex: WISTAR/FEMALE, Route: ORAL (GAVAGE)) of the same compound?
**A.** Its mutagenic call is “active; positive”.

**Q.** And the mutagenic call (Test System: AMES SALMONELLA TYPHIMURIUM, Strain/Indicator: TA98, Metabolic Activation: HAMSTER, LIVER, S-9, AROCLOR 1254 (10%), Method: PREINCUBATION)?
**A.** Its mutagenic call is “inactive; negative”.

**Q.** And the mutagenic call [1]?
**A.** Its mutagenic call is “inactive; negative”.

**Q.** And the mutagenic call (Test System: AMES SALMONELLA TYPHIMURIUM, Strain/Indicator: TA98, Metabolic Activation: RAT, LIVER, S-9, AROCLOR 1254 (10%), Method: PREINCUBATION)?
**A.** Its mutagenic call is “inactive; negative”.

**Q.** And the mutagenic call (Test System: AMES SALMONELLA TYPHIMURIUM, Strain/Indicator: TA100, Metabolic Activation: HAMSTER, LIVER, S-9, AROCLOR 1254 (10%), Method: PREINCUBATION)?
**A.** The mutagenic call was “inactive; negative”.

**Q.** What about the mutagenic call (Test System: AMES SALMONELLA TYPHIMURIUM, Strain/Indicator: TA100, Metabolic Activation: NONE, Method: PREINCUBATION) of the same compound?
**A.** Its mutagenic call is “inactive; negative”.

**Q.** What about the mutagenic call (Test System: AMES SALMONELLA TYPHIMURIUM, Strain/Indicator: TA100, Metabolic Activation: RAT, LIVER, S-9, AROCLOR 1254 (10%), Method: PREINCUBATION) of the same compound?
**A.** Its mutagenic call is “inactive; negative”.

**Q.** What about the mutagenic call (Test System: AMES SALMONELLA TYPHIMURIUM, Strain/Indicator: TA102, Metabolic Activation: NONE, Method: STANDARD PLATE) of the same compound?
**A.** The mutagenic call was “inactive; negative”.

**Q.** And the mutagenic call (Test System: AMES SALMONELLA TYPHIMURIUM, Strain/Indicator: TA1535, Metabolic Activation: HAMSTER, LIVER, S-9, AROCLOR 1254 (10%), Method: PREINCUBATION)?
**A.** The mutagenic call was “inactive; negative”.

**Q.** What about the mutagenic call (Test System: AMES SALMONELLA TYPHIMURIUM, Strain/Indicator: TA1535, Metabolic Activation: NONE, Method: PREINCUBATION) of the same compound?
**A.** Its mutagenic call is “inactive; negative”.

**Q.** And the mutagenic call (Test System: AMES SALMONELLA TYPHIMURIUM, Strain/Indicator: TA1535, Metabolic Activation: RAT, LIVER, S-9, AROCLOR 1254 (10%), Method: PREINCUBATION)?
**A.** The mutagenic call was “inactive; negative”.

**Q.** And the mutagenic call (Test System: AMES SALMONELLA TYPHIMURIUM, Strain/Indicator: TA1537, Metabolic Activation: HAMSTER, LIVER, S-9, AROCLOR 1254 (10%), Method: PREINCUBATION)?
**A.** The mutagenic call was “inactive; negative”.

**Q.** What about the mutagenic call (Test System: AMES SALMONELLA TYPHIMURIUM, Strain/Indicator: TA1537, Metabolic Activation: NONE, Method: PREINCUBATION) of the same compound?
**A.** Its mutagenic call is “inactive; negative”.

**Q.** What about the mutagenic call (Test System: AMES SALMONELLA TYPHIMURIUM, Strain/Indicator: TA1537, Metabolic Activation: RAT, LIVER, S-9, AROCLOR 1254 (10%), Method: PREINCUBATION) of the same compound?
**A.** Its mutagenic call is “inactive; negative”.

**Q.** What about the mutagenic call (Test System: E. COLI, Strain/Indicator: WP2 UVRA, Metabolic Activation: NONE, Method: SPOT TEST) of the same compound?
**A.** Its mutagenic call is “inactive; negative”.

**Q.** What about the mutagenic call (Test System: HUMAN BLOOD LYMPHOCYTES, Strain/Indicator: HUMAN BLOOD LYMPHOCYTES (HPRT)/6-THIOGUANINE, Metabolic Activation: NONE, Method: SUSPENSION/PLATE) of the same compound?
**A.** Its mutagenic call is “active; positive”.

**Q.** And the mutagenic call (Test System: MOUSE LYMPHOMA, Strain/Indicator: L5178Y (TK+/TK-), Metabolic Activation: NONE, Method: SUSPENSION/PLATE)?
**A.** The mutagenic call was “active; positive”.

**Q.** For `Cc1cccc2ccc([N+](=O)[O-])cc12`, which mutagenic call [1] is on record?
**A.** Its mutagenic call is “active; positive”.
